Reference: patent US10662203B2, “Pyrido[2,3-b]indole compounds for the treatment and prophylaxis of bacterial infection” (Hoffmann-La Roche Inc., priority 2017, dated 2020)
In brackets after ≈: the same amount, converted by molar mass.

Key:
[1] = test system: A. baumannii (ATCC17978); assay: 50% growth inhibitory concentration (IC50) determination assay; type: cell-based; conditions: Iso-Sensitest broth, 0.098 = detection limit
Summary of the method: (§1)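 Compounds were two-fold serially diluted from 50 to 0.097 μM final in Iso-Sensitest broth, inoculated to ~5×10^5 CFU/mL and incubated at 35±2° C. Growth was followed by OD at 600 nm every 20 minutes for 16 h.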

[2] = test system: K. pneumoniae (ATCC10031); assay: as above; type: cell-based; conditions: Klebsiella pneumoniae, Iso-Sensitest broth, 0.098 = detection limit
Summary of the method: as §1

[3] = test system: S. aureus (ATCC29213); assay: as above; type: cell-based; conditions: Staphylococcus aureus, Iso-Sensitest broth, 0.098 = detection limit
Summary of the method: as §1

[4] = Lyophilisation solubility assay (LYSA); type: physicochemical; conditions: 0.05 M phosphate buffer, HPLC-UV; for solubility thermodynamic: phosphate buffer, pH 6.5, aqueous buffer, thermodynamic from solid
Description: Lyophilisation Solubility Assay (LYSA):
The solubility of compounds of present invention was assessed by LYSA assay. Samples were prepared in duplicate from 10 mM DMSO stock solutions (20 μL) diluted in 30 μL pure DMSO. After evaporation of DMSO with a centrifugal vacuum evaporator, the residue was dissolved in 0.05 M phosphate buffer (150 μL, pH 6.5), which was stirred for one hour and shook for two hours. After one night, the solution was filtered using a microtiter filter plate. Then the filtrate and its 1/10 dilution were analyzed by HPLC-UV.

[5] = Acinetobacter baumannii, ATCC17978, A. baumannii ATCC17978

SMILES | IC50 [1, 5] | IC50 [2] | IC50 [3] | solubility thermodynamic [4] | IC50 ([1]; A. baumannii ATCC17978) | Lysa ([4]; pH 6.5)
CNc1cc(F)c(F)c2c1[nH]c1ncc(-c3cnc4c(c3)c(=O)c(C(=O)O)cn4C)c(N3CCCC(N(C)C)C3)c12 (centres unmarked) [Example 1.215] | 0.252 µM | 0.103 µM | 0.114 µM | 48 µg/mL (≈ 85.5 µM) |  | 
CNc1cc(F)c(F)c2c1[nH]c1ncc(-c3cnc4c(c3)c(=O)c(C(=O)O)cn4C)c(N3CC4[C@H](CC[C@H]4N(C)C)C3)c12 (some centres unmarked) [Example 1.221] | 0.081 µM | < 0.098 µM | < 0.098 µM | 49 µg/mL (≈ 83.4 µM) |  | 
CNc1cc(F)c(F)c2c1[nH]c1ncc(-c3cnc4c(c3)c(=O)c(C(=O)O)cn4C)c(N3C[C@@H](O)[C@@H](N(C)C)C3)c12 [Example 1.223] | 0.298 µM | < 0.098 µM | < 0.098 µM | 472 µg/mL (≈ 838 µM) |  | 
CNc1cc(F)c(F)c2c1[nH]c1ncc(-c3cnc4c(c3)c(=O)c(C(=O)O)cn4NC)c(N3C[C@@H](O)[C@@H](N(C)C)C3)c12 [Example 1.224] | 0.621 µM | < 0.098 µM | 0.183 µM | 570 µg/mL (≈ 985 µM) |  | 
CNc1cc(F)c(F)c2c1[nH]c1ncc(-c3cnc4c(c3)c(=O)c(C(=O)O)cn4C)c(N3CC4CCCN(C)C4C3)c12 (centres unmarked) [Example 1.232] | 0.049 µM | < 0.098 µM | < 0.098 µM | 23 µg/mL (≈ 40.1 µM) |  | 
CNc1cc(F)c(F)c2c1[nH]c1ncc(-c3cnc4c(c3)c(=O)c(C(=O)O)cn4C)c(N3CCC4(CCN4C)C3)c12 (centres unmarked) [Example 1.237] | 0.194 µM | < 0.098 µM | < 0.098 µM | 145 µg/mL (≈ 259 µM) |  | 
CNc1cc(F)c(F)c2c1[nH]c1ncc(-c3cnc4c(c3)c(=O)c(C(=O)O)cn4NC)c(N3CC4[C@@H](C3)OCCN4C)c12 (some centres unmarked) [Example 1.242] | 0.189 µM | < 0.098 µM | < 0.098 µM | 24 µg/mL (≈ 40.6 µM) |  | 
CNc1cc(F)c(F)c2c1[nH]c1ncc(-c3cnc4c(c3)c(=O)c(C(=O)O)cn4C)c(N3CCC4CN(C)CCC43)c12 (centres unmarked) [Example 1.243] | 0.961 µM | 0.403 µM | 0.712 µM | 151 µg/mL (≈ 263 µM) |  | 
CNc1cc(F)c(F)c2c1[nH]c1ncc(-c3cnc4c(c3)c(=O)c(C(=O)O)cn4C)c(N3CC[C@@H]4C3CCN4C)c12 (some centres unmarked) [Example 1.245] | 0.293 µM | < 0.098 µM | < 0.098 µM | 542 µg/mL (≈ 969 µM) |  | 
CNc1cc(F)c(F)c2c1[nH]c1ncc(-c3cnc4c(c3)c(=O)c(C(=O)O)cn4C)c(N3CCC4C3CCCN4C)c12 (centres unmarked) [Example 1.246] | 0.317 µM | < 0.098 µM | 0.193 µM | > 612 µg/mL |  | 
CNc1cc(F)c(F)c2c1[nH]c1ncc(-c3cnc4c(c3)c(=O)c(C(=O)O)cn4NC)c(N3CCC4C3CCCN4C)c12 (centres unmarked) [Example 1.247] | 0.344 µM | < 0.098 µM | 0.217 µM | 516 µg/mL (≈ 877 µM) |  | 
CNc1cc(F)c(F)c2c1[nH]c1ncc(-c3cnc4c(c3)c(=O)c(C(=O)O)cn4C)c(N3CC[C@@H]4C3CN4C)c12 (some centres unmarked) [Example 1.248] | 0.729 µM | < 0.098 µM | 0.199 µM | 222 µg/mL (≈ 407 µM) |  | 
CNc1cc(F)c(F)c2c1[nH]c1ncc(-c3cnc4c(c3)c(=O)c(C(=O)O)cn4NC)c(N3CC[C@@H]4C3CCN4C)c12 (some centres unmarked) [Example 1.249] | 0.272 µM | < 0.098 µM | < 0.098 µM | 487 µg/mL (≈ 848 µM) |  | 
CNc1cc(F)c(F)c2c1[nH]c1ncc(-c3cnc4c(c3)c(=O)c(C(=O)O)cn4C)c(N3CC4[C@@H](C3)CN4C)c12 (some centres unmarked) [Example 1.252] | 0.361 µM | < 0.098 µM | < 0.098 µM | 41 µg/mL (≈ 75.2 µM) |  | 
CNc1cc(F)cc2c1[nH]c1ncc(-c3cnc4c(c3)c(=O)c(C(=O)O)cn4C)c(N3CC[C@H](N(C)C)C3)c12 [Example 1.253] | 0.092 µM | < 0.098 µM | < 0.098 µM | 209 µg/mL (≈ 395 µM) |  | 
CNc1cc(F)c(F)c2c1[nH]c1ncc(-c3cnc4c(c3)c(=O)c(C(=O)O)cn4C)c(N3CC[C@@H](CN(C)C)C3)c12 [Example 1.255] | 0.13 µM | < 0.098 µM | < 0.098 µM | 99 µg/mL (≈ 176 µM) |  | 
CNc1cc(F)c(F)c2c1[nH]c1ncc(-c3cnc4c(c3)c(=O)c(C(=O)O)cn4C)c(N3CC[C@H](CN(C)C)C3)c12 [Example 1.256] | 0.219 µM | < 0.098 µM | < 0.098 µM | 202 µg/mL (≈ 360 µM) |  | 

Continued, values first:

IC50 [1, 5] | IC50 [2] | IC50 [3] | solubility thermodynamic [4] | IC50 ([1]; A. baumannii ATCC17978) | Lysa ([4]; pH 6.5) | SMILES
0.131 µM | < 0.098 µM | < 0.098 µM | 43 µg/mL (≈ 76.6 µM) |  |  | CNc1cc(F)c(F)c2c1[nH]c1ncc(-c3cnc4c(c3)c(=O)c(C(=O)O)cn4C)c(N3C[C@H](C)[C@@H](N(C)C)C3)c12 [Example 1.160]
 | < 0.098 µM | < 0.098 µM |  | 0.292 µM | 119 µg/mL | CNc1cc(F)c(F)c2c1[nH]c1ncc(-c3cnc4c(c3)c(=O)c(C(=O)O)cn4C)c(N3C[C@H](OC)[C@@H](N(C)C)C3)c12 [Example 1.170]
0.445 µM | < 0.098 µM | < 0.098 µM | 46 µg/mL (≈ 82.2 µM) |  |  | CNc1cc(F)cc2c1[nH]c1ncc(-c3cnc4c(c3)c(=O)c(C(=O)O)cn4C)c(N3C[C@H](OC)[C@@H](N(C)C)C3)c12 [Example 1.171]
0.277 µM | < 0.098 µM | < 0.098 µM | 113 µg/mL (≈ 188 µM) |  |  | CNc1cc(F)c(F)c2c1[nH]c1ncc(-c3cnc4c(c3)c(=O)c(C(=O)O)cn4C)c(N3C[C@H]4CCC[C@@H](N(C)C)[C@H]4C3)c12 [Example 1.175]
0.103 µM | < 0.098 µM | < 0.098 µM | 96 µg/mL (≈ 167 µM) |  |  | CNc1cc(F)c(F)c2c1[nH]c1ncc(-c3cnc4c(c3)c(=O)c(C(=O)O)cn4C)c(N3CCC(CN(C)C)CC3)c12 [Example 1.183]
0.096 µM | < 0.098 µM | < 0.098 µM | > 730 µg/mL |  |  | CNc1cc(F)cc2c1[nH]c1ncc(-c3cnc4c(c3)c(=O)c(C(=O)O)cn4C)c(N3CC[C@H]4CN(C)CC43)c12 (some centres unmarked) [Example 1.187]
0.143 µM | < 0.098 µM | 12.2 µM | 62 µg/mL (≈ 106 µM) |  |  | CNc1cc(F)c(F)c2c1[nH]c1ncc(-c3cnc4c(c3)c(=O)c(C(=O)O)cn4C)c(N3CCC4(CCCN(C)C4)C3)c12 (centres unmarked) [Example 1.190]
0.499 µM | < 0.098 µM | < 0.098 µM | 29 µg/mL (≈ 45.9 µM) |  |  | CNc1cc(F)c(F)c2c1[nH]c1ncc(-c3cnc4c(c3)c(=O)c(C(=O)O)cn4C)c(N3CCC4(CCCN(CCOC)C4)C3)c12 (centres unmarked) [Example 1.195]
0.245 µM | < 0.098 µM | < 0.098 µM | 407 µg/mL (≈ 672 µM) |  |  | CNc1cc(F)c(F)c2c1[nH]c1ncc(-c3cnc4c(c3)c(=O)c(C(=O)O)cn4C)c(N3CCCC(N(C)CCOC)C3)c12 (centres unmarked) [Example 1.197]
0.215 µM | < 0.098 µM | < 0.098 µM | 56 µg/mL (≈ 94.7 µM) |  |  | CNc1cc(F)c(F)c2c1[nH]c1ncc(-c3cnc4c(c3)c(=O)c(C(=O)O)cn4C)c(N3CCC(N(C)CCOC)C3)c12 (centres unmarked) [Example 1.198]
0.57 µM | < 0.098 µM | 0.1 µM | 69 µg/mL (≈ 119 µM) |  |  | CNc1cc(F)c(F)c2c1[nH]c1ncc(-c3cnc4c(c3)c(=O)c(C(=O)O)cn4C)c(N3CCC(N(C)CCO)C3)c12 (centres unmarked) [Example 1.200]
0.852 µM | < 0.098 µM | 0.189 µM | 124 µg/mL (≈ 210 µM) |  |  | CNc1cc(F)c(F)c2c1[nH]c1ncc(-c3cnc4c(c3)c(=O)c(C(=O)O)cn4C)c(N3CCCC(N(C)CCO)C3)c12 (centres unmarked) [Example 1.201]
0.778 µM | < 0.098 µM | 0.208 µM | 303 µg/mL (≈ 516 µM) |  |  | CNc1cc(F)c(F)c2c1[nH]c1ncc(-c3cnc4c(c3)c(=O)c(C(=O)O)cn4C)c(N3CCC(N4CCCC4)CC3)c12 [Example 1.203]
0.143 µM | < 0.098 µM | < 0.098 µM | 192 µg/mL (≈ 326 µM) |  |  | CNc1cc(F)c(F)c2c1[nH]c1ncc(-c3cnc4c(c3)c(=O)c(C(=O)O)cn4C)c(N3CC[C@H]4CN(CCO)CC43)c12 (some centres unmarked) [Example 1.205]
0.277 µM | < 0.098 µM | < 0.098 µM | 273 µg/mL (≈ 452 µM) |  |  | CNc1cc(F)c(F)c2c1[nH]c1ncc(-c3cnc4c(c3)c(=O)c(C(=O)O)cn4C(C)CO)c(N3CC[C@H]4CN(C)CC43)c12 (some centres unmarked) [Example 1.206]
0.076 µM | < 0.098 µM | < 0.098 µM | 63 µg/mL (≈ 116 µM) |  |  | CNc1cc(F)cc2c1[nH]c1ncc(-c3cnc4c(c3)c(=O)c(C(=O)O)cn4C)c(N3CC4[C@H](CCN4C)C3)c12 (some centres unmarked) [Example 1.209]
0.11 µM | < 0.098 µM | < 0.098 µM | 205 µg/mL (≈ 369 µM) |  |  | CNc1cc(F)cc2c1[nH]c1ncc(-c3cnc4c(c3)c(=O)c(C(=O)O)cn4C)c(N3CC[C@H]4CCN(C)C4C3)c12 (some centres unmarked) [Example 1.211]
0.102 µM | < 0.098 µM | < 0.098 µM | 26 µg/mL (≈ 46.5 µM) |  |  | CNc1cc(F)c(F)c2c1[nH]c1ncc(-c3cnc4c(c3)c(=O)c(C(=O)O)cn4C)c(N3CC[C@H]4CN(C)C4C3)c12 (some centres unmarked) [Example 1.213]
